Laboratory results: patent US9884823B2, “Oxime ether acetate compound, preparation method therefor and weeding application thereof” (ZHEJIANG UNIVERSITY OF TECHNOLOGY, priority 2014, dated 2018)
Like-named read-outs stand apart in the source and are kept apart here.

Key:
Wheat = assay: Culture dish method (general screening); type: in vivo; conditions: 100 mg/L, 7 days
Text: (§3) Culture dish method (general screening): The test targets were radish, cucumber, rape, wheat, sorghum and barnyard grass; the seeds of wheat, sorghum and radish were germinated in advance, and the uniform emerge-germinating seeds were used in the test.

Chinese sorghum = assay: Culture dish method (general screening); type: in vivo; conditions: 100 mg/L, 7 days
Text: as §3

Barnyardgrass [1] = assay: Culture dish method (general screening); type: in vivo, barnyard grass; conditions: 100 mg/L, 7 days
Text: as §3

Cucumber = assay: Culture dish method (general screening); type: in vivo; conditions: 100 mg/L, 7 days
Text: as §3

Rape = assay: Culture dish method (general screening); type: in vivo; conditions: 100 mg/L, 7 days
Text: as §3

Radish = assay: Culture dish method (general screening); type: in vivo; conditions: 100 mg/L, 7 days
Text: as §3

Abutilon = assay: Potted plants live body test; type: in vivo; conditions: 150 g a.i./ha
Text: (§1) The raw drug which was selected from the compounds in table 1 was weighed using an analytical balance (0.0001 g), and dissolved in DMF containing 1 wt % Tween-80 emulsifier to prepare a mother liquor of raw drug with a mass concentration of 1.0˜5.0%, and then diluted with distilled water, to prepare preparations at desired concentrations according to the ratio of ingredients in Examples 8, 9 and 10.
(§2) The test targets were mustard, small quinoa, Abutilon, amaranthus retroflexus, Eclipta prostrata, crabgrass, dog point. A pot with a diameter of 7.5 cm was used, filled with composite soil (garden soil:nursery matrix, 1:2, v/v) to ¾ of the pot, then the above […] kinds of weeds targets were directly seeded (germination rate ≧85%), covered with soil at a thickness of 0.2 cm. When the weeds grew to 3-leaf stage, pre-emergence soil treatment for weeds planting, and then spraying was performed.

Crabgrass = assay: Potted plants live body test; type: in vivo; conditions: 150 g a.i./ha
Text: as §1, §2

Dog point = assay: Potted plants live body test; type: in vivo; conditions: 150 g a.i./ha
Text: as §1, §2

Eclipta prostrata = assay: Potted plants live body test; type: in vivo; conditions: 150 g a.i./ha; for efficiency, Eclipta prostrata: 30 days, Table 9
Text: as §1, §2

amaranthus retroflexus = assay: Potted plants live body test; type: in vivo; conditions: 150 g a.i./ha
Text: as §1, §2

Barnyardgrass [2] = assay: Potted plants live body test; type: in vivo, barnyard grass; conditions: postemergence spraying; 150 g a.i./ha; Table 10
Small quinoa = conditions: 150 g a.i./ha, 30 days, Table 9
Text: as §1, §2

[3] = test system: broadleaf weeds such as mustard, small quinoa, Abutilon, Amaranthus retroflexus and Eclipta prostrate; conditions: 150 g a.i./ha; for herbicidal activity on broadleaf weeds targets: 30 days after administration, Table 9 summary; for activity on the growth of broadleaf weeds: postemergence spraying, 30 days, vs clear water control
Text: as §1, §2

[4] = test system: grass weeds such as crabgrass, barnyard grass, dog point; conditions: 150 g a.i./ha; for activity for grass targets such as crabgrass and dog point: 30 days after administration, Table 9 summary; for activity on grass weeds such as crabgrass, dog point: postemergence spraying, 30 days
Text: as §1, §2

Mustard = conditions: 150 g a.i./ha, 30 days, Table 9
[5] = postemergence spraying, Table 10
[6] = Postemergence spraying, 30 days, Table 9
[7] = Pre-emergence soil treatment, 30 days, Table 9

SMILES	inhibition rate, Wheat Root (Wheat) [%]	inhibition rate, Wheat Stem (Wheat) [%]	inhibition rate, Chinese sorghum Root (Chinese sorghum) [%]	inhibition rate, Chinese sorghum Stem (Chinese sorghum) [%]	inhibition rate, Barnyardgrass Root (Barnyardgrass [1]) [%]	inhibition rate, Barnyardgrass Stem (Barnyardgrass [1]) [%]	inhibition rate, Cucumber Root (Cucumber) [%]	inhibition rate, Cucumber Stem (Cucumber) [%]	inhibition rate, Rape Root (Rape) [%]	inhibition rate, Rape Stem (Rape) [%]	inhibition rate, Radish Root (Radish) [%]	inhibition rate, Radish Stem (Radish) [%]	efficiency, Abutilon (Abutilon; [6]) [%]	efficiency, Abutilon (Abutilon; [7]) [%]	efficiency, Crabgrass (Crabgrass; [6]) [%]	efficiency, Crabgrass (Crabgrass; [7]) [%]	efficiency, Dog point (Dog point; [6]) [%]	efficiency, Dog point (Dog point; [7]) [%]	efficiency, Eclipta prostrata (Eclipta prostrata; Postemergence spraying) [%]	efficiency, Eclipta prostrata (Eclipta prostrata; Pre-emergence soil treatment) [%]	also measured
COc1cc(OC)nc(Oc2ccccc2CNc2ccc(C(=O)OC(C)C)cc2)n1 [Pyribambenz isopropyl, reference compound]	95	95	100	90	100	95	95	90	100	100	100	90									efficiency, Abutilon (Abutilon; [5]): 0%; efficiency, Crabgrass (Crabgrass; [5]): 50%; efficiency, Dog point (Dog point; [5]): 80%; efficiency, Eclipta prostrate (Eclipta prostrata; [5]): 0%; efficiency, amaranthus retroflexus (amaranthus retroflexus; [5]): 70%; efficiency, Barnyardgrass (Barnyardgrass [2]): 50%
CON=C(C(=O)OC)c1ccccc1COc1cc(-c2ccccn2)ccc1C(F)(F)F [Compound 112]	0	0	0	0	0	0	50	80	50	80	50	80	50	0	0	0	0	0	60	0	efficiency, amaranthus retroflexus (amaranthus retroflexus; [6]): 80%; efficiency, amaranthus retroflexus (amaranthus retroflexus; [7]): 50%; efficiency, Small quinoa (Small quinoa; Postemergence spraying): 75%; efficiency, Small quinoa (Small quinoa; Pre-emergence soil treatment): 45%; herbicidal activity on broadleaf weeds targets [3]: herbicidal activity; activity on the growth of broadleaf weeds [3]: inhibitory activity; activity for grass targets such as crabgrass and dog point [4]: poor activity; activity on grass weeds such as crabgrass, dog point [4]: almost have no activity; efficiency, Mustard (Mustard; Postemergence spraying): 100%; efficiency, Mustard (Mustard; Pre-emergence soil treatment): 50%
CON=C(C(=O)OC)c1ccccc1COc1cccc(-c2ncccc2C)c1 [Compound 83]	60	20	80	30	80	0	80	30	80	50	50	50	30	0	0	0	0	0	0	0	efficiency, amaranthus retroflexus (amaranthus retroflexus; [6]): 20%; efficiency, amaranthus retroflexus (amaranthus retroflexus; [7]): 20%; efficiency, Small quinoa (Small quinoa; Postemergence spraying): 50%; efficiency, Small quinoa (Small quinoa; Pre-emergence soil treatment): 30%; herbicidal activity on broadleaf weeds targets [3]: herbicidal activity; activity on the growth of broadleaf weeds [3]: inhibitory activity; activity for grass targets such as crabgrass and dog point [4]: poor activity; activity on grass weeds such as crabgrass, dog point [4]: almost have no activity; efficiency, Mustard (Mustard; Postemergence spraying): 0%; efficiency, Mustard (Mustard; Pre-emergence soil treatment): 0%
CON=C(C(=O)OC)c1ccccc1COc1ccc(-c2cccc(C)n2)cc1 [Compound 120]	20	0	50	30	60	20	70	30	60	0	50	0	50	0	0	0	0	0	30	0	efficiency, amaranthus retroflexus (amaranthus retroflexus; [6]): 20%; efficiency, amaranthus retroflexus (amaranthus retroflexus; [7]): 0%; efficiency, Small quinoa (Small quinoa; Postemergence spraying): 60%; efficiency, Small quinoa (Small quinoa; Pre-emergence soil treatment): 50%; herbicidal activity on broadleaf weeds targets [3]: herbicidal activity; activity on the growth of broadleaf weeds [3]: inhibitory activity; activity for grass targets such as crabgrass and dog point [4]: poor activity; activity on grass weeds such as crabgrass, dog point [4]: almost have no activity; efficiency, Mustard (Mustard; Postemergence spraying): 40%; efficiency, Mustard (Mustard; Pre-emergence soil treatment): 20%
CON=C(C(=O)OC)c1ccccc1COc1cccc(-c2ccc(Cl)cn2)c1 [Compound 19]	30	0	80	30	70	30	90	70	100	100	80	80	40	0	0	0	0	0	50	0	efficiency, amaranthus retroflexus (amaranthus retroflexus; [6]): 50%; efficiency, amaranthus retroflexus (amaranthus retroflexus; [7]): 30%; efficiency, Small quinoa (Small quinoa; Postemergence spraying): 60%; efficiency, Small quinoa (Small quinoa; Pre-emergence soil treatment): 25%; herbicidal activity on broadleaf weeds targets [3]: herbicidal activity; activity on the growth of broadleaf weeds [3]: inhibitory activity; activity for grass targets such as crabgrass and dog point [4]: poor activity; activity on grass weeds such as crabgrass, dog point [4]: almost have no activity; efficiency, Mustard (Mustard; Postemergence spraying): 50%; efficiency, Mustard (Mustard; Pre-emergence soil treatment): 0%
CON=C(C(=O)OC)c1ccccc1COc1cccc(-c2cccc(C)n2)c1 [Compound 85]	60	20	80	30	80	0	80	30	80	50	50	50	50	20	0	0	0	0	50	0	efficiency, amaranthus retroflexus (amaranthus retroflexus; [6]): 0%; efficiency, amaranthus retroflexus (amaranthus retroflexus; [7]): 0%; efficiency, Small quinoa (Small quinoa; Postemergence spraying): 0%; efficiency, Small quinoa (Small quinoa; Pre-emergence soil treatment): 0%; herbicidal activity on broadleaf weeds targets [3]: herbicidal activity; activity on the growth of broadleaf weeds [3]: inhibitory activity; activity for grass targets such as crabgrass and dog point [4]: poor activity; activity on grass weeds such as crabgrass, dog point [4]: almost have no activity; efficiency, Mustard (Mustard; Postemergence spraying): 30%; efficiency, Mustard (Mustard; Pre-emergence soil treatment): 20%
